{
  "source": "patent US4997827A",
  "about": "“Compositions containing 5-α-dihydro-19-norethisterone and derivatives thereof for in vivo inhibition of aromatase” (Medical Foundation of Buffalo, Inc., priority 1989, dated 1991)",
  "key": {"[1]": {"system": "human placental aromatase", "assay": "in vitro assay with human placental aromatase", "assay_type": "biochemical", "details": "in vitro assays", "description": "5α-DHNET was previously found to be a very weak in vitro aromatase inhibitor (Y. Osawa, Y. Osawa, C. Yarborough & L. Borzynski, Biochem Soc. Transactions, 656-659 (1983)), requiring a 50 μM concentration for a partial inhibition of human placental aromatase in vitro."}, "SD rat (SPF)": {"system": "SD rat (SPF)", "assay": "minimum lethal dose in SD rat", "assay_type": "in vivo", "description": "For example, the minimum lethal dose of 5α-DHNET for SD rat (SPF) is greater than 5,000 mg/kg."}, "[2]": {"system": "NMU-induced breast carcinomas of BUF/N rats", "assay": "effect on growth of NMU-induced breast carcinomas", "assay_type": "in vivo, rat", "description": "(§1) The animal model for human mammary carcinomas developed by Gullino et al. (P. M. Gullino, H. M. Pettigrew, and F. H. Grantham, J. Natl. Cancer Inst., 54, 401-414 (1975)) was used for this evaluation of 5α-DHNET.N-Nitrosomethylurea (NMU), wet with 3% acetic acid, was dissolved in distilled water (10 mg/ml) and given in three intravenous injections at a dose of 50 mg/kg body weight to BUF/N inbred female rats of 50 days of age on the first injection. The second injection was 4 weeks and the third injection was 8 weeks after the initial administration. The onset of tumors was monitored by daily visual inspection and by palpation of the mammary regions three times a week. The increase in tumor size was monitored by vernier caliper measurements of the subcutaneous mass. One-half the average of the longest and shortest tumor diameters was taken as the value of r in the formula 4/3 πr^3 used to estimate tumor volume. 5α-DHNET in sesame oil was given i.p. daily at a dose of 50 mg/kg body weight/day for 3 weeks to BUF/N female rats having at least one tumor, 2 cm or larger. The number and size of the rumors were monitored on 12 treated and 13 vehicle-only control animals. The mean initial volume of the tumors was 5.10 and 5.53 ml for the control and treated group, respectively. While the tumors in the control group grew very rapidly, growth arrest was clearly observed in 75% (9/12) of the treated group. The death rate was lower in the treated group (3/12 in 4 weeks) than in the control (5/13 in 3 weeks). […] Averaged relative tumor volume is compared in FIG. 7. This also indicates the suppression of tumor growth by the 5α-DHNET treatment. While 24 new tumors developed in 9 control rats in 3 weeks, only 7 developed in 11 treated rats."}, "[3]": {"system": "NMU-induced breast carcinomas of BUF/N rats", "assay": "preventive effect on incidence of NMU-induced breast carcinoma, first protocol", "assay_type": "in vivo, rat", "description": "as §1\nThe preventive effect of 5α-DHNET to lower the incidence of breast carcinoma was assessed by use of the same animal model as in Example 3 but by modification of the administration protocol. The vehicle-only control was prepared as described in Example 3. Oophorectomy was carried out at the 4th week. 5α-DHNET at a dose of 50 mg/kg body weight/day was given i.p. daily for one week starting at the 4th week. The onset of tumors, their number and location in each animal were recorded daily. The results are given in FIGS. 9 and 10 and in Table 2. The control group developed tumors in 100% (16/16) of the animals by the 98th day after the first NMU injection. At this point tumor incidence for the 5α-DHNET treated and oophorectomized groups was 13% (2/16) and 38% (6/16), respectively. […] At the 180th day the death rate for the 5α-DHNET treated and oophorectomized group was 25% and 31%, respectively, compared to 69% for the control group. The mean latent period of tumor development was 72, 101, and 116 days for the control, OVX, and 5α-DHNET group, respectively."}, "[4]": {"system": "NMU-induced breast carcinomas of BUF/N rats", "assay": "effect on breast tumor incidence, protocol III", "assay_type": "in vivo, rat", "description": "The protocol was further modified to evaluate the generality of the effect of 5α-DHNET on breast carcinomas. […] Oophorectomy was also carried out at 3 weeks after the NMU injection. After 37 weeks of monitoring, the tumor incidence was 87%, 38%, and 19% for the control, 5α-DHNET,and OVX group, respectively. The average number of tumors per tumor carrying animal was 2.8, 1.5 and 1.0 for the central, 5α-DHNET, and OVX group, respectively."}, "[5]": {"details": "rat, in vivo"}, "[6]": {"system": "human placental aromatase", "details": "cited from earlier work"}},
  "data": [
    {"smiles": "C#C[C@]1(O)CC[C@H]2[C@@H]3CC[C@H]4CC(=O)CC[C@@H]4[C@H]3CC[C@@]21C", "note": "[5α-DHNET, 5α-dihydro-19-norethisterone]", "values": [
      {"measurement": "potency as aromatase inhibitor relative to 6α- and 6β-bromoandrostenedione", "setting": "[1]", "result": "thousand-fold less potent"},
      {"measurement": "minimum lethal dose", "setting": "SD rat (SPF)", "result": "greater than 5,000 mg/kg"},
      {"measurement": "effect on growth of breast carcinomas", "setting": "[2]; 50 mg/kg body weight/day daily for three weeks", "result": "significantly suppressed the growth of breast carcinomas"},
      {"measurement": "animals with growth arrest of tumors", "setting": "[2]; 50 mg/kg body weight/day i.p. for 3 weeks, 9/12 treated", "result": 75, "unit": "%"},
      {"measurement": "death rate", "setting": "[2]; 50 mg/kg body weight/day i.p. for 3 weeks, in 4 weeks", "result": "3/12"},
      {"measurement": "initially observed tumors disappeared", "setting": "[2]; 3 week period, 6/47", "result": 13, "unit": "%"},
      {"measurement": "tumors regressed", "setting": "[2]; 3 week period, 20/48", "result": 42, "unit": "%"},
      {"measurement": "tumors growing", "setting": "[2]; 3 week period, 28/48", "result": 58, "unit": "%"},
      {"measurement": "Total No. of Tumors disappeared", "setting": "[2]; 3 wk", "result": 6},
      {"measurement": "Total No. of Tumors growing", "setting": "[2]; 3 wk", "result": 28},
      {"measurement": "Total No. of Tumors regressed", "setting": "[2]; 3 wk", "result": 20},
      {"measurement": "share of responded animals maintained without a growth of tumors after stopping administration", "setting": "[2]; another 3 weeks after stopping", "result": "approximately half"},
      {"measurement": "Total No. of Tumors 3 wk", "setting": "[2]; end of 3 wk treatment, 11 rats", "result": 48},
      {"measurement": "Total No. of Tumors newly developed", "setting": "[2]; in 3 weeks, 11 treated rats", "result": 7},
      {"measurement": "Total No. of Tumors start", "setting": "[2]; start of treatment, 11 rats", "result": 47},
      {"measurement": "tumor incidence", "setting": "[3]; 98th day after first NMU injection, 50 mg/kg/day i.p. one week from 4th week, 2/16", "result": 13, "unit": "%"},
      {"measurement": "death rate", "setting": "[3]; 180th day after first NMU injection, 4/16", "result": 25, "unit": "%"},
      {"measurement": "% Tumor Incidence", "setting": "[3]; 180th day after first NMU injection, 8/16", "result": 50, "unit": "%"},
      {"measurement": "effect on incidence of breast carcinoma and death rate", "setting": "[3]; Examples 4-6, given at different times", "result": "significantly lower the incidence of breast carcinoma and the death rate as effectively as complete oophorectomy"},
      {"measurement": "Average No. of tumors per tumor-carrying rat", "setting": "[3]; first protocol", "result": 1.8},
      {"measurement": "Mean Latent Period of tumor development", "setting": "[3]; first protocol", "result": 116, "unit": "days"},
      {"measurement": "tumor incidence", "setting": "[4]; after 37 weeks, treatment 3 weeks after single NMU dose", "result": 38, "unit": "%"},
      {"measurement": "average number of tumors per tumor carrying animal", "setting": "[4]; protocol III", "result": 1.5},
      {"measurement": "body weight compared to control rats", "setting": "[5]", "result": "did not show any significant difference of body weight from the control rats"},
      {"measurement": "concentration for inhibition of human placental aromatase in vitro", "setting": "[6]; in vitro, for 5α-DHNET a partial inhibition", "result": 50, "unit": "µM"},
      {"measurement": "in vitro aromatase inhibitory activity", "setting": "[6]; previous in vitro studies", "result": "essentially inactive"}
    ]}
  ]
}
